Data reported in the supplement of paper PMC10307832.

Key:
Assay in all cases: relative viability (nuclei count vs DMSO), 5 days (fraction); higher = more cells survive
[1] = compound: CC1=CC=C(C=C1)C(=O)CN2C3=C(CCCC3)SC2=N [Pifithrin_alpha] + CCNC(=O)c1noc(-c2cc(C(C)C)c(O)cc2O)c1-c1ccc(CN2CCOCC2)cc1 [Luminespib] (partner 0.01 µM)
Procedure, shortened: (§1)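 Nuclei were stained with Hoechst during a one-step fixation (final 0.05% Triton X-100, 1% formaldehyde, 1 ug/ml Hoechst) carried out 5 days after dosing, then counted on 4× images. The cells, lung cancer lines in 1536-well plates, had been dosed by pin tool the day after seeding with one drug alone or a fixed anchor-drug dose plus five library-drug doses (not always all listed) in √10 steps. Relative viability is the nuclei count in treated wells divided by that in vehicle wells, and each value is the median of duplicate plates.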

[2] = compound: CC1=CC=C(C=C1)C(=O)CN2C3=C(CCCC3)SC2=N [Pifithrin_alpha] + CS(=O)(=O)CCNCc1ccc(-c2ccc3ncnc(Nc4ccc(OCc5cccc(F)c5)c(Cl)c4)c3c2)o1 [Lapatinib] (partner 2 µM)
Procedure, shortened: as §1

Axitinib + Navitoclax = compound: CNC(=O)c1ccccc1Sc1ccc2c(/C=C/c3ccccn3)n[nH]c2c1 [Axitinib] + CC1(C)CCC(c2ccc(Cl)cc2)=C(CN2CCN(c3ccc(C(=O)NS(=O)(=O)c4ccc(N[C@H](CCN5CCOCC5)CSc5ccccc5)c(S(=O)(=O)C(F)(F)F)c4)cc3)CC2)C1 [Navitoclax] (partner 0.5 µM)
Procedure, shortened: as §1

Bemcentinib + OSI-027 = compound: Nc1nc(Nc2ccc3c(c2)CC[C@@H](N2CCCC2)CC3)nn1-c1cc2c(nn1)-c1ccccc1CCC2 [Bemcentinib] + COc1cccc2cc(-c3nc([C@H]4CC[C@H](C(=O)O)CC4)n4ncnc(N)c34)[nH]c12 [OSI-027] (partner 0.5 µM)
Procedure, shortened: as §1

With NCI-H1395 the relative viability ([1]; first compound 1 µM) was 0.704, the relative viability ([1]; first compound 3.162 µM) was 0.518 and the relative viability ([1]; first compound 10 µM) was 0.631. The relative viability ([1]; first compound 31.62 µM) was 0.663, the relative viability ([1]; first compound 100 µM) was 0.657 and the relative viability ([2]; first compound 3.162 µM) was 0.797. It also gave a relative viability ([2]; first compound 10 µM) of 0.967, a relative viability ([2]; first compound 31.62 µM) of 0.663 and a relative viability ([2]; first compound 100 µM) of 0.814. For the same cell line, the relative viability (Axitinib + Navitoclax; first compound 0.005 µM) was 1.14, the relative viability (Axitinib + Navitoclax; first compound 0.01581 µM) was 1.21 and the relative viability (Axitinib + Navitoclax; first compound 0.05 µM) was 1.02. The relative viability (Axitinib + Navitoclax; first compound 0.1581 µM) was 1.01, the relative viability (Axitinib + Navitoclax; first compound 0.5 µM) was 1.57 and the relative viability (Bemcentinib + OSI-027; first compound 0.04 µM) was 0.654. The relative viability (Bemcentinib + OSI-027; first compound 0.1265 µM) was 0.74, the relative viability (Bemcentinib + OSI-027; first compound 0.4 µM) was 0.616 and the relative viability (Bemcentinib + OSI-027; first compound 1.265 µM) was 0.613. It also gave a relative viability (Bemcentinib + OSI-027; first compound 4 µM) of 0.594.
With NCI-H2347 the relative viability ([1]; first compound 1 µM) was 0.921, the relative viability ([1]; first compound 3.162 µM) was 0.541 and the relative viability ([1]; first compound 10 µM) was 0.392. For the same cell line, the relative viability ([1]; first compound 31.62 µM) was 0.288, the relative viability ([1]; first compound 100 µM) was 0.254 and the relative viability ([2]; first compound 1 µM) was 0.811. It also gave a relative viability ([2]; first compound 3.162 µM) of 0.911, a relative viability ([2]; first compound 10 µM) of 0.902 and a relative viability ([2]; first compound 31.62 µM) of 0.705. For the same cell line, the relative viability ([2]; first compound 100 µM) was 0.911, the relative viability (Axitinib + Navitoclax; first compound 0.005 µM) was 0.793 and the relative viability (Axitinib + Navitoclax; first compound 0.01581 µM) was 0.857. It also gave a relative viability (Axitinib + Navitoclax; first compound 0.05 µM) of 0.902, a relative viability (Axitinib + Navitoclax; first compound 0.1581 µM) of 0.818 and a relative viability (Axitinib + Navitoclax; first compound 0.5 µM) of 0.934. The relative viability (Bemcentinib + OSI-027; first compound 0.04 µM) was 0.413, the relative viability (Bemcentinib + OSI-027; first compound 0.1265 µM) was 0.454 and the relative viability (Bemcentinib + OSI-027; first compound 0.4 µM) was 0.386. It also gave a relative viability (Bemcentinib + OSI-027; first compound 1.265 µM) of 0.429 and a relative viability (Bemcentinib + OSI-027; first compound 4 µM) of 0.422.
HCC-15 was tested, and the relative viability ([1]; first compound 1 µM) was 0.175, the relative viability ([1]; first compound 3.162 µM) was 0.284 and the relative viability ([1]; first compound 10 µM) was 0.315. For the same cell line, the relative viability ([1]; first compound 31.62 µM) was 0.209, the relative viability ([1]; first compound 100 µM) was 0.322 and the relative viability ([2]; first compound 1 µM) was 0.636. For the same cell line, the relative viability ([2]; first compound 3.162 µM) was 1.05, the relative viability ([2]; first compound 10 µM) was 0.734 and the relative viability ([2]; first compound 31.62 µM) was 0.666. For the same cell line, the relative viability ([2]; first compound 100 µM) was 0.845, the relative viability (Axitinib + Navitoclax; first compound 0.005 µM) was 0.763 and the relative viability (Axitinib + Navitoclax; first compound 0.01581 µM) was 0.699. It also gave a relative viability (Axitinib + Navitoclax; first compound 0.05 µM) of 0.727, a relative viability (Axitinib + Navitoclax; first compound 0.1581 µM) of 0.706 and a relative viability (Axitinib + Navitoclax; first compound 0.5 µM) of 0.78. The relative viability (Bemcentinib + OSI-027; first compound 0.04 µM) was 0.716, the relative viability (Bemcentinib + OSI-027; first compound 0.1265 µM) was 0.794 and the relative viability (Bemcentinib + OSI-027; first compound 0.4 µM) was 0.74. For the same cell line, the relative viability (Bemcentinib + OSI-027; first compound 1.265 µM) was 0.726 and the relative viability (Bemcentinib + OSI-027; first compound 4 µM) was 0.815.
Work on HCC-44 yielded a relative viability ([1]; first compound 1 µM) of 1.06, a relative viability ([1]; first compound 3.162 µM) of 1.21 and a relative viability ([1]; first compound 10 µM) of 0.671. The relative viability ([1]; first compound 31.62 µM) was 0.543, the relative viability ([1]; first compound 100 µM) was 0.622 and the relative viability ([2]; first compound 1 µM) was 0.932. The relative viability ([2]; first compound 3.162 µM) was 0.965, the relative viability ([2]; first compound 10 µM) was 0.791 and the relative viability ([2]; first compound 31.62 µM) was 0.641. The relative viability ([2]; first compound 100 µM) was 0.763, the relative viability (Axitinib + Navitoclax; first compound 0.005 µM) was 1.04 and the relative viability (Axitinib + Navitoclax; first compound 0.01581 µM) was 1.06. For the same cell line, the relative viability (Axitinib + Navitoclax; first compound 0.05 µM) was 0.99, the relative viability (Axitinib + Navitoclax; first compound 0.1581 µM) was 0.939 and the relative viability (Axitinib + Navitoclax; first compound 0.5 µM) was 1.12. It also gave a relative viability (Bemcentinib + OSI-027; first compound 0.04 µM) of 0.452, a relative viability (Bemcentinib + OSI-027; first compound 0.1265 µM) of 0.661 and a relative viability (Bemcentinib + OSI-027; first compound 0.4 µM) of 0.446. The relative viability (Bemcentinib + OSI-027; first compound 1.265 µM) was 0.483 and the relative viability (Bemcentinib + OSI-027; first compound 4 µM) was 0.511.
For PC-14, the relative viability ([1]; first compound 1 µM) was 0.134, the relative viability ([1]; first compound 3.162 µM) was 0.147 and the relative viability ([1]; first compound 10 µM) was 0.149. It also gave a relative viability ([1]; first compound 31.62 µM) of 0.0887, a relative viability ([1]; first compound 100 µM) of 0.0663 and a relative viability ([2]; first compound 1 µM) of 0.337. For the same cell line, the relative viability ([2]; first compound 3.162 µM) was 0.32, the relative viability ([2]; first compound 10 µM) was 0.265 and the relative viability ([2]; first compound 31.62 µM) was 0.271. It also gave a relative viability ([2]; first compound 100 µM) of 0.15, a relative viability (Axitinib + Navitoclax; first compound 0.005 µM) of 1.09 and a relative viability (Axitinib + Navitoclax; first compound 0.01581 µM) of 1.01. The relative viability (Axitinib + Navitoclax; first compound 0.05 µM) was 1.05, the relative viability (Axitinib + Navitoclax; first compound 0.1581 µM) was 0.967 and the relative viability (Axitinib + Navitoclax; first compound 0.5 µM) was 1.05. It also gave a relative viability (Bemcentinib + OSI-027; first compound 0.04 µM) of 0.84, a relative viability (Bemcentinib + OSI-027; first compound 0.1265 µM) of 1.08 and a relative viability (Bemcentinib + OSI-027; first compound 0.4 µM) of 0.938. For the same cell line, the relative viability (Bemcentinib + OSI-027; first compound 1.265 µM) was 0.953 and the relative viability (Bemcentinib + OSI-027; first compound 4 µM) was 0.81.
NCI-H2085 showed a relative viability ([1]; first compound 3.162 µM) of 0.404, a relative viability ([1]; first compound 10 µM) of 0.513 and a relative viability ([1]; first compound 31.62 µM) of 0.387. The relative viability ([1]; first compound 100 µM) was 0.387, the relative viability ([2]; first compound 1 µM) was 0.626 and the relative viability ([2]; first compound 3.162 µM) was 0.69. The relative viability ([2]; first compound 10 µM) was 0.691, the relative viability ([2]; first compound 31.62 µM) was 0.667 and the relative viability ([2]; first compound 100 µM) was 0.661. The relative viability (Axitinib + Navitoclax; first compound 0.005 µM) was 1.09, the relative viability (Axitinib + Navitoclax; first compound 0.01581 µM) was 1.28 and the relative viability (Axitinib + Navitoclax; first compound 0.05 µM) was 1.26. For the same cell line, the relative viability (Axitinib + Navitoclax; first compound 0.1581 µM) was 1.03, the relative viability (Axitinib + Navitoclax; first compound 0.5 µM) was 1.18 and the relative viability (Bemcentinib + OSI-027; first compound 0.04 µM) was 0.722. The relative viability (Bemcentinib + OSI-027; first compound 0.1265 µM) was 0.945, the relative viability (Bemcentinib + OSI-027; first compound 0.4 µM) was 0.764 and the relative viability (Bemcentinib + OSI-027; first compound 1.265 µM) was 0.686. It also gave a relative viability (Bemcentinib + OSI-027; first compound 4 µM) of 0.752.
With HCC-827 the relative viability ([1]; first compound 1 µM) was 0.747, the relative viability ([1]; first compound 3.162 µM) was 0.741 and the relative viability ([1]; first compound 10 µM) was 0.803. For the same cell line, the relative viability ([1]; first compound 31.62 µM) was 0.439, the relative viability ([1]; first compound 100 µM) was 0.863 and the relative viability ([2]; first compound 1 µM) was 0.197. The relative viability ([2]; first compound 3.162 µM) was 0.207, the relative viability ([2]; first compound 10 µM) was 0.235 and the relative viability ([2]; first compound 31.62 µM) was 0.197. It also gave a relative viability ([2]; first compound 100 µM) of 0.198, a relative viability (Axitinib + Navitoclax; first compound 0.005 µM) of 0.971 and a relative viability (Axitinib + Navitoclax; first compound 0.01581 µM) of 0.959. The relative viability (Axitinib + Navitoclax; first compound 0.05 µM) was 0.998, the relative viability (Axitinib + Navitoclax; first compound 0.1581 µM) was 1.02 and the relative viability (Axitinib + Navitoclax; first compound 0.5 µM) was 1. The relative viability (Bemcentinib + OSI-027; first compound 0.04 µM) was 0.816, the relative viability (Bemcentinib + OSI-027; first compound 0.1265 µM) was 0.927 and the relative viability (Bemcentinib + OSI-027; first compound 0.4 µM) was 0.862. For the same cell line, the relative viability (Bemcentinib + OSI-027; first compound 1.265 µM) was 0.84 and the relative viability (Bemcentinib + OSI-027; first compound 4 µM) was 0.848.
